Test results: US20100178293A1 (priority 2007, published 2010)

What was measured:
[1] = system: Tg2576 Tg+ mice; experiment: Tg2576 mouse model of Alzheimer's disease (Example 2); type: in vivo; conditions: 100 μg i.v. weekly for 6 months
Description: Ten-month-old male and female Tg2576 Tg+ and Tg− are used (n=10 animals/group). Tg+ mice are treated with Campath 100 μg i.v. weekly for 6 months or placebo (saline), respectively before being sacrificed. TG− mice served as controls Animals are perfused before brain dissection with 0.9% normal saline followed by HEPES buffer, pH 7.2, containing protease inhibitors. […] Tg+ mice fed chow containing ibuprofen for 6 months serve as positive treatment control.

[2] = system: RML prion; type: in vivo, mice; conditions: Example 1; RML prion i.p.; Campath 100 μg i.v.
[3] = system: mouse model for Alzheimer's disease; conditions: literature, Lim et al. 2000; cited from earlier work

Question: What does the source list for alemtuzumab [Campath]?
Answer: activity in a mouse model of Alzheimer's disease [1]: active; inhibition of the spread of prions in an animal model [2]: can inhibit the spread of prions

Question: Which “plaque pathology and inflammation in a mouse model for Alzheimer's disease” value [3] does the source give for CC(C)Cc1ccc(C(C)C(=O)O)cc1 (stereo not drawn) [Ibuprofen] here?
Answer: suppresses plaque pathology and inflammation
